Measured values published in patent US7759087B1, “Method of indefinite culture of hepatitis C virus” (priority 2005, dated 2010).

Columns and labels:
[1] = system: HCV replicon (NS5A-GFP) in GS4 cells; test: GFP-based flow cytometry assay for HCV replication (NS5A-GFP expression in GS4 replicon cells); format: cell-based, hepatitis C virus; conditions: for mean intensity of the GFP and percentage of GFP-positive cells: 100 units/ml IFN, 1 μM 2CMA, 2 μg/ml Cs A
Protocol: (§1) Flow cytometry and cell cycle analysis. Cells were routinely fixed in 2% paraformaldehyde before flow cytometry analysis, which was performed with a FACSCanto flow cytometer (BD Biosciences). Live cell sorting was performed under sterile conditions with a FACSAria flow cytometer (BD Biosciences). The approximately 5% of cells (2×10^7 cells total) with the strongest GFP signal were sorted back for expansion at each round of live-cell sorting. For cell-cycle analysis, 1×10^6 cells were stained with 50 μg/ml propidium iodide in the presence of 200 μg/ml RNase A and 0.1% Triton X-100 for 30 minutes before being subjected to FACS analysis.
A novel GFP-based flow cytometry assay for HCV replication. Recently, a modified HCV replicon with the eGFP gene inserted into the coding region of NS5A has been generated for study of the subcellular localization of the HCV replication complex (16). […] When we subjected I/5A-GFP cells to flow-cytometry analysis, we found the GFP signal of the majority (˜70%) of the cells to be indistinguishable from that of Clone B, a replicon cell line without GFP but containing the same S2204I mutation in the NS5A gene (1) (FIG. 1). To obtain a cell line with minimal FACS-profile overlap with the GFP-negative replicon cells, we then performed consecutive rounds of cell sorting on I/5A-GFP-6 cells in which the cells with the strongest GFP were recovered. A population with no greater than 15% GFP-negative cells was obtained after four rounds of sorting and was used for the present study. We designated these cells GS4 (FIG. 1).
The GFP signal of these cells was then analyzed by flow cytometry 4 days after treatment with increasing amounts of inhibitors, including Interferon-α (IFN-α), 2′-Cmethyl-adenosine (2CMA), and Cyclosporin A (Cs A). […] The […] (0.25 μM for 2CMA, 0.5 μg/ml for CsA, and 10-25 units/ml for IFN-α) obtained with this assay closely resemble results from previous studies where HCV RNA level was measured (2, 6, 19, 26).

[2] = system: HCV replicon (wild-type NS5A) in Huh.8 cells; test: Western blot for NS5A expression in Huh.8 replicon cells; format: cell-based, hepatitis C virus; conditions: 4 days, 1 μM 2CMA, 10 μg/ml aphidicolin
Protocol: Antibodies and western blots. An anti-NS5A monoclonal antibody was purchased from Virogen (Boston, Mass.) and an anti-Ku86 monoclonal antibody from Sigma. A monoclonal antibody against GFP was obtained from Clontech/BD Biosciences. To detect membrane-associated HCV proteins, we directly lysed the replicon cells in SDS PAGE sample buffer. We used 2×10^5 cells per 160 μl of SDS PAGE sample buffer for all our western blotting experiments. Blotting and detection were all performed according to standard procedures. For detection of Ku86 signal, the membrane was first stripped of the NS5A signal by incubation in stripping buffer (100 mM 2mercaptoethanol, 2% SDS, 62.5 mM Tris-HCl, pH 6.7) for 30 minutes at 50° C.
Additional experiments with a replicon cell line containing a wild type HCV sequence. […] Huh.8 is replicon cell line that contains the wild-type sequence of NS5A (1). Huh.8 cells were cultured under various conditions for 4 days before being analyzed by western blot for NS5A expression. […] Serum starvation actually appeared to have increased NS5A expression, as it did with the GS4 cells (FIG. 8 and data not shown).

HCV RNA in GS4 cells = test: Northern analysis of HCV RNA in GS4 cells; format: cell-based, hepatitis C virus; conditions: 3 days, 1 μM 2CMA, 10 μg/ml aphidicolin
Protocol: RNA extraction and northern blots. Total RNA was extracted with TRIzol reagent (Invitrogen, San Diego, Calif.). Equal amounts of RNA (10 μg per sample) were loaded onto formaldehyde-containing agarose gels for electrophoresis. The transfer of RNA onto a nitrocellulose membrane, random labeling of a radioactive probe, and hybridization were all performed according to standard molecular-biology protocols. The probe for detecting HCV RNA is a cDNA fragment that corresponds to nucleotides 8024 to 9563 of HCV 1 b. The exposure and detection of the radioactive signal was done with a Storm 860 phosphor-imaging system (Amersham/GE Healthcare).
To validate our results at the viral RNA level, we repeated the inhibition and rescue experiments and directly examined HCV RNA by northern blotting. GS4 cells were treated with various inhibitors/agents for 3 days before the total RNAs were subjected to northern analysis for HCV RNA.

[3] = system: HCV replicon (NS5A-GFP) in GS4 cells; test: Recovery of NS5A-GFP expression at 37° C. after 39° C. treatment of GS4 cells; format: cell-based, hepatitis C virus; conditions: 4 days recovery at 37° C.; 100 units/ml IFN-a, 10 μg/ml aphidicolin
Protocol: To eliminate the possibility that these growth-arrest treatments somehow stabilize the GFP and maintain it throughout the treatment, we took advantage of our finding that 39° C. treatment results in reversible inhibition of HCV replication in our assay. We first eliminated the GFP signal from GS4 cells by incubating them at 39° C. for 4 days and then transferred the cells back to 37° C. so that HCV replication could recover. […] We tested aphidicolin and serum starvation using this assay along with IFN-α.

HCV replicon = conditions: reference 17; cited from earlier work
GS4 cells = test: Cell-cycle analysis by propidium iodide staining; format: cell-based; conditions: 4 days, 10 μg/ml shown
Protocol: as §1
Failure of growth arrest to inhibit replicon expression prompted us to examine the effect of cell-cycle perturbation on replicon expression. Propidium iodide (PI) staining of the cells permitted acquisition of dual fluorescence FACS profiles showing the cell-cycle distribution of GFP-positive and -negative cells. We found no correlation between positive GFP signal and any of the cell-cycle stages in the cycling cells (FIG. 12, no treatment). Incubation at 39° C. inhibited NS5A-GFP expression without any effect on cell-cycle profile. […] Even though confluency also affected cell cycle to a certain degree, its effect on cell-cycle progress was far less dramatic than that of aphidicolin.

[4] = system: full-length HCV RNA based on the genotype 1b HCV-N; conditions: reference 22; cited from earlier work

Compound: TGF-β
- effect on HCV RNA replication or protein expression ([1]; our system, data not shown): only a marginal effect

Compound: C[C@@]1(O)[C@H](O)[C@@H](CO)O[C@H]1n1cnc2c(N)ncnc21 [2CMA, 2′-C-methyl-adenosine]
- NS5A expression (western blot) [2]: effectively eliminated any NS5A expression
- HCV RNA signal (northern blotting) (HCV RNA in GS4 cells): effectively eliminated HCV RNA signal
- mean intensity of the GFP and percentage of GFP-positive cells ([1]; GS4 cells, 4 days): effectively lowered
- IC50 ([1]; Hepatitis C virus, 96 h, GS4 cells, 4 days treatment, flow cytometry, read-out: 1050 (NS5A-GFP expression)): 250 nM

Compound: Interferon-α [IFN-α]
- recovery of NS5A-GFP expression after 39° C. treatment [3]: efficiently blocked the recovery of the NS5A-GFP expression
- mean intensity of the GFP and percentage of GFP-positive cells ([1]; GS4 cells, 4 days): effectively lowered

Compound: C[C@@]1(CO)[C@H](O)CC[C@@]2(C)[C@H]1CC[C@H]1C[C@@H]3C[C@@]12CC[C@]3(O)CO [aphidicolin]
- effect on HCV replicon (HCV replicon): inhibitory effect
- NS5A expression (western blot) [2]: did not inhibit HCV expression
- cell-cycle arrest (GS4 cells): effectively arrested cell cycle at the G1/S transition
- abundance of HCV RNA or protein [4]: had no effect
- HCV RNA signal (northern blotting) (HCV RNA in GS4 cells): only had a minimal effect
- recovery of NS5A-GFP expression after 39° C. treatment [3]: did not prevent the resumption of HCV replication
- effect on NS5A-GFP expression ([1]; 5 to 20 μg/ml, GS4 cells, 4 days): failed to affect NS5A-GFP expression significantly
